Experimental data from US11649259B2, “Polymorphic forms of deoxycytidine, compositions comprising the same and uses” (ZOGENIX MDS, INC., priority 2019, dated 2023).

Key:
[1] = Stability of Form B by XRPD pattern after storage (no conversion to Form A); type: physicochemical
Excerpt: “Stability”, as used herein, can be measured by confirming the Form B XRPD pattern of the material after a given storage time. Conversion of Form B to Form A deoxycytidine, as determined by)(RFD, indicates instability. Stability can also be measured by confirming compliance with the test attribute standards as outlined in Example 4. Test attributes include physical appearance, IR trace, HPLC trace for active and impurities, water content, residual solvent content, elemental impurities and microbial growth. One or more of these attributes can be measured after storage over a given period of time, e.g. 6 months, 12 months or more, and under various conditions, e.g. 25±2° C./60±5% relative humidity or 40±2° C./75±5% relative humidity).
XRPD data for a mixture of A and B dC isoforms (2DC (A+B mix)), the B isoform produced in the small-scale manufacturing run (2DC(7)/S-P-17001 initial) and the isolated A isoform is provided in Table 2. The stability Form B was confirmed by determining the XRPD after 12 months of storage (2DC(7)/S-P-17001 12 month).

[2] = Form B deoxycytidine 12-month stability study (Example 4); type: physicochemical; conditions: four lots; long-term storage 25±2° C./60±5% relative humidity and accelerated storage 40±2° C./75±5% relative humidity; measured at 3, 6, 9 and 12 months
Description: A study was conducted to determine the stability of Form B deoxycytidine prepared by the methods in Example 1 over a 12-month period. Four lots of material were studied: (1) and (2) were packaged in a polyethylene (PE) bag sealed with a cable tie, (3) was packed in a PE bag with silica gel sealed with a cable tie, and (4) was packaged in a PE drum sealed with a cap. […]
All attributes were measured initially (0 months) to confirm compliance with the standards above. Appearance, IR, HPLC and water content were then measured at 3, 6, 9 and 12 months to confirm compliance. Microbial content was measured again at 12 months.

- stability of Form B, XRPD pattern after storage ([1]; after 12 months of storage, lot 2DC(7)/S-P-17001, 4 kg scale): confirmed
- time for which the form is stable ([1]; stored in a sealed container at e.g. room temperature): at least 6 months
- changes in test attributes (appearance, IR, HPLC, water content, microbial content) from initial to 12 months [2]: no significant changes
SMILES: Nc1ccn([C@H]2C[C@H](O)[C@@H](CO)O2)c(=O)n1 [Form B deoxycytidine, Deoxycytidine (2′-Deoxycytidine, dC)]
